Experimental data as given in patent publication US20160060285A1, “Aminoglycosides, Methods of Synthesis, and Associated Applications” (UTAH STATE UNIVERSITY, priority 2010, published 2016).
In brackets after ≈: the same amount, converted by molar mass.

Columns and labels:
[1] = system: Staphylococcus aureus ATCC25923; assay: Bacterial growth inhibition (MIC) test, microtiter plate, CLSI protocol; assay type: cell-based; conditions: Staphylococcus aureus, ATCC25923; S. aureus 25923; 37° C., 24 hours; read-out: MIC
[2] = system: Fusarium graminearum B4-5A; assay: microbe, parasite or virus in culture; assay type: cell-based; conditions: Fusarium graminearum, B45A, 48 h
[3] = system: Escherichia coli ATCC 25922; assay: Bacterial growth inhibition (MIC) test, microtiter plate, CLSI protocol; assay type: cell-based; conditions: Escherichia coli, ATCC25922; E. coli 25922; Luria-Bertani medium, 37° C., 24 hours; read-out: MIC
[4] = system: HeLa cells; assay: Cell viability assay (MTT), cytotoxicity test; assay type: cell-based, human; conditions: for Viable Cells Percentage Compared to Control: MTT
Method: HeLa cells were grown in commercial DMEM 1× (Gibco) with 10% fetal bovine serum (FBS, Gibco), 100 U/mL penicillin, and 100 μg/mL streptomycin at 37° C. and 5% CO2. The cells were allowed to adhere for 24 h before drug treatment.
The cells were seeded in 96-well microtiter plates (10,000/200 μL). After 24 h of incubation in the media, cells were treated with various concentrations of K608, K4608 and K408 (0.0, 1.0, 10.0, 100.0, 1000 μg/mL and Trition 1×) for 48 h. 20 μL of MTT stock solution (5 mg/mL) was added to each well and incubated for 4 h at 37° C. Upon completion of incubation, the media was carefully removed and washed twice with […] of pbs buffer. Then, 200 μL of DMSO was added to each well; agitated on orbital shaker for 15 min., and the absorbance at 570 nm with 670 nm filter was determined with a microplate reader (Synergy H4). The results are expressed as viability compared with that of control. The experiment was carried out in triplicate in three independent experiments.

[5] = system: Candida albicans ATCC64124 (azole-resistant); assay: microbe, parasite or virus in culture; assay type: cell-based
[6] = system: Candida albicans ATCC MYA-2876 (azole sensitive); assay: Fungal MIC and MFC, microbroth dilution assay (M27-A3); assay type: cell-based; conditions: C. albicans MYA2876 (azole sensitive)
[7] = system: azole-resistant Candida albicans ATCC 64124; assay: Antifungal synergism by checkerboard analysis, K-compound and azole combinations; assay type: cell-based; conditions: Candida albicans, ATCC64124, K4608 checkerboard table; compound alone

Question: What does the source list for `CCCCCCCCOC[C@H]1OC(O[C@@H]2C(N)CC(N)C(O[C@H]3OC(CN)[C@@H](O)[C@H](O)C3O)[C@@H]2O)[C@H](O)[C@H](N)C1OCCCCCCCC` (some centres unmarked) [Compound K4608]?
Answer: MIC [1]: > 250 µg/mL; MIC [2]: 15.6 µg/mL (≈ 22 µM); MIC [3]: > 250 µg/mL; toxicity to human cervical cancer cell line HeLa ([4]; 1.0 to 1000 μg/mL, 48 h): not toxic; Viable Cells Percentage Compared to Control ([4]; HeLa, 1 μg/mL, 48 h): 124.28%; Viable Cells Percentage Compared to Control ([4]; HeLa, 10 μg/mL, 48 h): 149.52%; Viable Cells Percentage Compared to Control ([4]; HeLa, 100 μg/mL, 48 h): 129.86%; Viable Cells Percentage Compared to Control ([4]; HeLa, 1000 μg/mL, 48 h): 122.93%; effect on growth of cells (number of viable cells) ([4]; HeLa, wells treated with compound): promoted growth of cells; MFC ([5]; ATCC64124): 9.8 µg/mL (≈ 13.8 µM); MIC ([5]; ATCC64124, 48 h): 4.9 to 9.8 µg/mL (≈ 6.91 to 13.8 µM); MIC ([6]; RPMI 1640, 35° C., 48 hours): 1.2 to 2.4 µg/mL (≈ 1.69 to 3.39 µM); MFC ([6]; subculture on Sabouraud dextrose agar after MIC test): 2.4 µg/mL (≈ 3.39 µM); MIC [7]: 31.2 µg/mL
